Our source for the IC50 values is US20200247815A1, “PYRAZOLYL-CONTAINING TRICYCLIC DERIVATIVE, PREPARATION METHOD THEREFOR AND USE THEREOF” (Jiangsu Hansoh Pharmaceutical Group Co., Ltd., priority 2017, published 2020).

pIC50: −log10 of the molar value.

Assay [1] deals with pancreatic cancer tumor cell Mia Paca 2. As to the kind of experiment: Inhibition of tumor cell proliferation (CellTiter-Glo). In kind it is cell-based. As to conditions: Homo sapiens, Miapaca-2 cell, 3-7 days. Here is the method: The object of this test example is to determine the inhibition effect of the present compound on tumor cell proliferation activity. The inhibition activity of the compound on tumor cell proliferation was determined by CellTiter-Glo method, and the half inhibitory concentration IC50 of the compound for inhibiting cell proliferation activity was obtained, 50-100 μL of tumor cell suspension was inoculated in a 96-well cell culture plate with a density of 1˜5*10^4 cells/ml. The plate was incubated in an incubator for 16˜24 hours (37° C., 5% CO2). Solutions of test compounds at different concentrations obtained by gradient dilution were added to the cells in the plate. The plate was incubated in an incubator for 3-7 days (37° C., 5% CO2), 50˜100 μL of CellTiter-Glo reagent was added to each well. The plate was shaked for 10 minutes, and left to stand at room temperature for 10 minutes. The value of the chemiluminescence signal was determined by a microplate reader. The inhibition rate was calculated from the value of the chemiluminescence signal. IC50 of the compound was obtained by curve fitting based on the inhibition rate at different concentrations.
The inhibition effect of the present compound on pancreatic cancer tumor cell Mia Paca 2 proliferation activity was determined by the test, and the obtained IC50 value is shown in Table 2.
A general note: In ATP-based viability assays light output follows the ATP content of the culture.

Assay [2] deals with T1, ERK-2 kinase (Homo sapiens, UniProt P28482).
T1 construct: purchased Invitrogen PV3313
Put plainly: Inhibition of ERK-2 kinase activity (LANCE Ultra TR-FRET). Type of assay: biochemical. As to conditions: ERK-2 enzyme 0.08 nM, ATP 38.15 μM. How it is done:
The object of this test example is to determine the inhibition effect of the compound on ERK-2 kinase activity. In vitro ERK-2 kinase analysis was carried out by using LANCE Ultra (Perkin Elmer) method. The reaction (reaction system 10 μL) was conducted by adding 2.5 μL of test compound/DMSO (final 4%, V/V, diluted to 10 concentrations (400 nM to 0.02 nM) using a 1:3 dilution scheme), 5 μL of a mixed solution of ERK-2 enzyme (Invitrogen, # PV3313, final concentration: 0.08 nM) and substrate Ulight-MBP peptide (Perkin Elmer, # TRF0109-M, final concentration: 0.5 μM) formulated with a kinase buffer (50 mM Hepes pH 7.4, 10 mM MgCl2, 1 mM EGTA 0.01% Triton X-100, 2 mM DTT) and 2.5 μL of ATP solution (Invitrogen, # PV3227, final concentration: 38.15 μM) formulated with the same buffer successively to a 384-well plate (Perkin Elmer OPTIPLATE™) and mixing well. The reaction mixture was incubated at room temperature for 60 minutes. The reaction was stopped by adding IX LANCE Detection buffer (PerkinElmer # CR97-100) diluted with ultra-pure water, mM EDTA (Invitrogen #15575038) and 1 nM Eu-anti-p-MBP (PerkinElmer # TRF0201-M) antibody in 10 μL/well. The plate was incubated at room temperature for 60 minutes. Excitation reading was performed on Synergy H1 Hybird Reader, H1MFD (Biotek) with an excitation wavelength of 320 nm. TR-FRET rate was calculated by dividing the acceptor emission signal (signal value at 665 nM) by the Eu donor emission signal (signal value at 615 nM). The inhibition TR-FRET rate of the well treated by the compound was calculated relative to the Max signal (DMSO control) and Min signal (no enzyme added) control wells on the plate {% inhibition rate=100−[(test compound−Min average)]/(Max average−Min average)×100}. The 10 concentrations of the compound after 4-fold dilution of the reaction system were 100 nM to 0.005 nM. Abs_IC50 value was calculated by using GraphPad prism fits percentage inhibition rate and ten-point concentration data in a 4-parameter non-linear logic formula.
On the technique in general: Time-resolved FRET reads energy transfer from a long-lived donor to a nearby acceptor.

The target of assay [3] is T2, ERK-1 kinase (Homo sapiens, UniProt P27361).
T2 construct: purchased Invitrogen PV3311
Put plainly: Inhibition of ERK-1 kinase activity (LANCE Ultra TR-FRET). In kind it is biochemical. The following applies: ERK1 enzyme 0.4 nM, ATP 38.15 μM. Here is the method: The object of this test example is to determine the inhibition effect of the compound on ERK-1 kinase activity. In vitro ERK-1 kinase analysis was carried out by using LANCE Ultra (Perkin Elmer) method. The reaction (reaction system 10 μL) was conducted by adding 2.5 μL of test compound/DMSO (final 4%, V/V, diluted to 10 concentrations (400 nM to 0.02 nM) using a 1:3 dilution scheme), 5 μL of a mixed solution of ERK1 enzyme (Invitrogen, # PV3311, final concentration: 0.4 nM) and substrate Ulight-MBP peptide (Perkin Elmer, # TRF0109-M, final concentration: 0.5 μM) formulated with a kinase buffer (50 mM Hepes pH 7.4, 10 mM MgCl2, 1 mM EGTA, 0.01% Triton X-100, 2 mM DTT) and 2.5 μL of ATP solution (Invitrogen, # PV3227, final concentration: 38.15 μM) formulated with the same buffer successively to a 384-well plate (Perkin Elmer OPTIPLATE™) and mixing well. The reaction mixture was incubated at room temperature for 60 minutes. The reaction was stopped by adding 1× LANCE Detection buffer (PerkinElmer # CR97-100) diluted with ultra-pure water, mM EDTA (Invitrogen #15575038) and 1 nM Eu-anti-p-MBP (PerkinElmer # TRF0201-M) antibody in 10 μL/well. The plate was incubated at room temperature for 60 minutes. Excitation reading was performed on Synergy H1 Hybird Reader, H1MFD (Biotek) with an excitation wavelength of 320 nm. TR-FRET rate was calculated by dividing the acceptor emission signal (signal value at 665 nM) by the Eu donor emission signal (signal value at 615 nM). The inhibition TR-FRET rate of the well treated by the compound was calculated relative to the Max signal (DMSO control) and Min signal (no enzyme added) control wells on the plate {% inhibition rate=100−[(test compound−Min average)]/(Max average−Min average)×100}. The 10 concentrations of the compound after 4-fold dilution of the reaction system were 100 nM to 0.005 nM. Abs_IC50 value was calculated by using GraphPad prism fits percentage inhibition rate and ten-point concentration data in a 4-parameter non-linear logic formula.

T2 sequence (P27361 whole entry): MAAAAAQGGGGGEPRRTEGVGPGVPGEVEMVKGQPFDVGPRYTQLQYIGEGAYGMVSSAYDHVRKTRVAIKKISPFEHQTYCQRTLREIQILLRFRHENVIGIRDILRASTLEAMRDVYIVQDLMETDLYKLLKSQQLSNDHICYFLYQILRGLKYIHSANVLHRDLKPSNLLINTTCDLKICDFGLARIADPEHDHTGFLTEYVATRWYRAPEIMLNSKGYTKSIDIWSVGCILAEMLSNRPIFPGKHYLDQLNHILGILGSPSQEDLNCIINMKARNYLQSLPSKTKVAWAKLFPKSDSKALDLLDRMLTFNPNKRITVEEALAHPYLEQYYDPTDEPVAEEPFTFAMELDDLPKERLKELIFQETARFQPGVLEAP
T1 sequence (P28482 whole entry): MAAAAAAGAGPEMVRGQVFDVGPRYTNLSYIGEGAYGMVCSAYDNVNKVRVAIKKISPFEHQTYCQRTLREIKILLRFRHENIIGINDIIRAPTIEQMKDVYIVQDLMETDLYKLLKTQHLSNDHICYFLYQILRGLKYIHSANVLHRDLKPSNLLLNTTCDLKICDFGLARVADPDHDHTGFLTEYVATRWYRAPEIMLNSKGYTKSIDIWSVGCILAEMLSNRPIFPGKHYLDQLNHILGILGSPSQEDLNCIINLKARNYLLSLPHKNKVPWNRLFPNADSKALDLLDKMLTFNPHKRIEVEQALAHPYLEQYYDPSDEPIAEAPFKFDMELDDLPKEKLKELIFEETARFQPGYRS

The term pIC50 denotes the negative decadic logarithm of the IC50, by convention in mol/L. `C[C@@H](NC(=O)c1nc2cc3c(-c4ccncc4)n[nH]c3cc2[nH]1)c1cccc(Br)c1` [Example 18, (R)—N-(1-(3-bromophenyl)ethyl)-3-(pyridin-4-yl)-1,7-dihydroimidazo[4,5-f]indazole-6-carboxamide]: the figures for the pIC50 in assay [1], in assay [2] and in assay [3] were 6.96, 9.29 and 9.35, respectively.
For the compound `C[C@H](CNC(=O)c1nc2cc3c(-c4ccncc4)n[nH]c3cc2[nH]1)c1ccccc1` [Example 67, (S)—N-(2-phenylpropyl)-3-(pyridin-4-yl)-1,7-dihydroimidazo[4,5-f]indazole-6-carboxamide], the negative logarithm of the IC50 (pIC50) in assay [2] is 9.16; in assay [3] it was 8.84.
For `O=C(NC(CCO)c1ccccc1)c1nc2cc3c(-c4ccncc4)n[nH]c3cc2[nH]1` (stereo not shown) [Example 71, N-(3-hydroxy-1-phenylpropyl)-3-(pyridin-4-yl)-1,7-dihydroimidazo[4,5-f]indazole-6-carboxamide], the pIC50 in assay [2] is 9.10; in assay [3], 8.66.
As for `O=C(CNC(=O)c1nc2cc3c(-c4ccncc4)n[nH]c3cc2[nH]1)c1ccccc1` [Example 72, N-(2-oxo-2-phenylethyl)-3-(pyridin-4-yl)-1,7-dihydroimidazo[4,5-f]indazole-6-carboxamide], the pIC50 in assay [2] was 9.62; in assay [3], 8.60.
Turning to `O=C(NNc1ccccc1)c1nc2cc3c(-c4ccncc4)n[nH]c3cc2[nH]1` [Example 76, N′-phenyl-3-(pyridin-4-yl)-1,7-dihydroimidazo[4,5-f]indazole-6-carbohydrazide], the figures for the negative logarithm of the IC50 (pIC50) in assay [2] and in assay [3] were 10.10 and 9.60, respectively.
On to `CN(NC(=O)c1nc2cc3c(-c4ccncc4)n[nH]c3cc2[nH]1)c1ccccc1` [Example 77, N′-methyl-N′-phenyl-3-(pyridin-4-yl)-1,7-dihydroimidazo[4,5-f]indazole-6-carbohydrazide], for which the pIC50 in assay [2] is 9.07; in assay [3] it was 8.66.
The corresponding values for `COC(CNC(=O)c1nc2cc3c(-c4ccncc4)n[nH]c3cc2[nH]1)c1ccccc1` (stereo not shown) [Example 78, N-(2-methoxy-2-phenylethyl)-3-(pyridin-4-yl)-1,7-dihydroimidazo[4,5-f]indazole-6-carboxamide] are 9.68 and 9.19.
Take `COc1ccc(-c2n[nH]c3cc4[nH]c(C(=O)N[C@H](C)c5ccccc5)nc4cc23)cn1` [Example 84, (R)-3-(6-methoxypyridin-3-yl)-N-(1-phenylethyl)-1,7-dihydroimidazo[4,5-f]indazole-6-carboxamide]: the figures for the pIC50 in assay [2] and in assay [3] were 9.03 and 8.58, respectively.
The corresponding values for `CC(C)Oc1ccc(-c2n[nH]c3cc4[nH]c(C(=O)N[C@H](C)c5ccccc5)nc4cc23)cn1` [Example 85, (R)-3-(6-isopropoxypyridin-3-yl)-N-(1-phenylethyl)-1,7-dihydroimidazo[4,5-f]indazole-6-carboxamide] are 8.51 and 8.46.
Taken in the same sequence, the figures for `COc1cc(-c2n[nH]c3cc4[nH]c(C(=O)N[C@H](C)c5ccccc5)nc4cc23)ccn1` [Example 86, (R)-3-(2-methoxypyridin-4-yl)-N-(1-phenylethyl)-1,7-dihydroimidazo[4,5-f]indazole-6-carboxamide] were 8.88 and 8.62.
The corresponding values for `C[C@@H](NC(=O)c1nc2cc3c(-c4ccncc4)n[nH]c3cc2[nH]1)c1cccc(C2CC2)c1` [Example 88, (R)—N-(1-(3-cyclopropylphenyl)ethyl)-3-(pyridin-4-yl)-1,7-dihydroimidazo[4,5-f]indazole-6-carboxamide] are 9.00 and 8.64.
As for `O=C(N[C@H](CNCC(F)F)c1ccccc1)c1nc2cc3c(-c4ccncc4)n[nH]c3cc2[nH]1` [Example 89, (S)—N-(2-((2,2-difluoroethyl)amino)-1-phenylethyl)-3-(pyridin-4-yl)-1,7-dihydroimidazo[4,5-f]indazole-6-carboxamide], the results for the pIC50 in assay [2] and in assay [3] were 9.06 and 8.88, respectively.
The corresponding values for `CN(C)C[C@@H](NC(=O)c1nc2cc3c(-c4ccncc4)n[nH]c3cc2[nH]1)c1ccccc1` [Example 90, (S)—N-(2-(dimethylamino)-1-phenylethyl)-3-(pyridin-4-yl)-1,7-dihydroimidazo[4,5-f]indazole-6-carboxamide] are 8.78 and 8.75.
With `C[C@@H](NC(=O)c1nc2cc3c(C4=CCC(=O)CC4)n[nH]c3cc2[nH]1)c1ccccc1` [Example 94, (R)-3-(4-oxocyclohex-1-en-1-yl)-N-(1-phenylethyl)-1,7-dihydroimidazo[4,5-f]indazole-6-carboxamide], the negative logarithm of the IC50 (pIC50) in assay [2] is 8.23; in assay [3], 8.65.
For `COc1ccc(-c2n[nH]c3cc4[nH]c(C(=O)N[C@H](C)c5ccccc5)nc4cc23)cc1` [Example 95, (R)-3-(4-methoxyphenyl)-N-(1-phenylethyl)-1,7-dihydroimidazo[4,5-f]indazole-6-carboxamide], the values for the pIC50 in assay [2] and in assay [3] were 8.66 and 8.35, respectively.
Taken in the same sequence, the figures for `C[C@@H](NC(=O)c1nc2cc3c(-c4cc[n+]([O-])cc4)n[nH]c3cc2[nH]1)c1ccccc1` [Example 97, (R)-4-(6-((1-phenylethyl)carbamoyl)-1,7-dihydroimidazo[4,5-f]indazol-3-yl)pyridine-N-oxide] were 9.52 and 9.12.
Regarding `CC(C)c1cccc([C@@H](C)NC(=O)c2nc3cc4c(-c5ccncc5)n[nH]c4cc3[nH]2)c1` [Example 98, (R)—N-(1-(3-Isopropylphenyl)ethyl)-3-(pyridin-4-yl)-1,7-dihydroimidazo[4,5-f]indazole-6-carboxamide], the pIC50 in assay [2] was 8.99; in assay [3], 8.48.
The corresponding values for `O=C(NCc1ccccc1)c1nc2cc3c(-c4ccncc4)n[nH]c3cc2[nH]1` [Example 114, N-benzyl-3-(pyridin-4-yl)-1,7-dihydroimidazo[4,5-f]indazole-6-carboxamide] are 8.97 and 8.54.
